What was measured:
[1] = system: MAPK14 (mitogen-activated protein kinase 14); assay: Gene expression experiment (real-time PCR) in SH-SY5Y cells: MAPK14; type: cell-based; details: 24 h
Experimental: SH-SY5Y cells were seeded in 100 mm-cell dishes (BD Biocoat) at concentrations of 3.7×10^5 cells/mL (10 mL/dish) and cultured for 24 h at 37° C. and 5% CO2. Culture medium used was F12/DMEM (Gibco) supplemented with 1% non-essential amino acids (Gibco), 15% FBS (Bio West), and 1% penicillin/streptomycin (Lonza). After 24 h, the culture medium was completely removed with an aspirator, 10 mL of culture medium Opti-MEM(Gibco) was added to each dish, and the cells were cultured for 24 h at 37° C. and 5% CO2. RNA was extracted from the culture cells and analyzed for the expression of genes described below by real-time PCR (designated as “Control” in FIGS. 2 to 8).
RNA extraction was performed using ISOGEN Reagent (Nippon Gene Co., Ltd.) in accordance with the protocol recommended by Nippo n Gene Co., Ltd. (see URL: https://www.nippongene.com/siyaku/product/extraction/tds/tds_isogen-rna-dna-protein.pdf). Real-time PCR was performed according to the protocol recommended by Thermo Fisher Scientific using a reagent kit for TaqMan Real-Time PCR (Thermo Fisher Scientific) (see URL: https://assets.thermofisher.com/TFS-Assets/LSG/manuals/4304449_TaqManPCRMM_UG.pdf).
24 h after seeding 100 mm-cell dishes (BD Biocoat) with SH-SY5Y cells, the culture medium was completely removed with an aspirator, amyloid β protein (Beta-Amyloid 1-42, AnaSpec) was mixed with Opti-MEM (Gibco) so that the final concentration was 5 μM, 10 mL of the mixture was added to each dish, the cells were cultured for 24 h at 37° C. and 5% CO2, and RNA was extracted. Except for performing the procedure described above, gene expression was analyzed as described above (designated as “Aβ” in FIGS. 2 to 8).
24 h after seeding 100 mm-cell dishes (BD Biocoat) with SH-SY5Y cells, the culture medium was completely removed with an aspirator, Sample 1 was mixed with culture medium Opti-MEM(Gibco) so that the final concentration was 12.56 μM, 9,990 μL of the mixture was added to each dish and allowed to stand for 10 min, amyloid β protein (Beta-Amyloid 1-42, AnaSpec) was mixed with Opti-MEM (Gibco) so that the final concentration was […], 10 μL of the mixture was added to each well, the cells were cultured for 24 h at 37° C. and 5% CO2, and RNA was extracted. Except for performing the procedure described above, Gene expression was analyzed as described above (designated as “Aβ+M3,5G” in FIGS. 2 to 8).
Except that Sample 2 was used instead of Sample 1, gene expression was analyzed as described above (designated as “Aβ+M” in FIGS. 2 to 8).
Except that Sample 3 was used instead of Sample 1, gene expression was analyzed as described above (designated as “Aβ+M3G” in FIGS. 2 to 8). […]

[2] = system: SH-SY5Y cells; assay: Reactive oxygen species measurement experiment (OxiSelect Intracellular ROS assay kit); type: cell-based; details: 12.56 μM with amyloid β protein 5 μM, 1 h
Experimental: Specifically, OxiSelect™ Intracellular ROS assay kit (Cell Biolabs Ink) was used to measure the reactive oxygen species level according to protocol recommended by Cell Biolabs Ink (URL: https://www.cellbiolabs.com/sites/default/files/STA-342-ROS-assay-kit.pdf)) of Cell Biolabs Ink Co., Ltd. (designated as “Control” in FIG. 10).
Each well of a 96-well plate (BD Biocoat) was seeded with SH-SY5Y cells (ATCC, model of neuronal cells) at a concentration of 2×10^5 cells/mL (100 μL/well) and the cells cultured at 37° C. and 5% CO2 for 24 h. Culture medium used was F12/DMEM (Gibco) supplemented with 1% non-essential amino acids (Gibco), 15% FBS (Bio West), and 1% penicillin/streptomycin (Lonza).
After 24 h, the culture medium was completely removed with an aspirator, 20×DCFH-DA (reagent included in the assay kit) was mixed with culture medium Opti-MEM (Gibco) (reagent was diluted 20 times), 100 μL of the mixture was added to each well, and the cells were cultured at 37° C. and 5% CO2 for 1 h. The culture medium Opti-MEM with 20×DCFH-DA was then completely removed with an aspirator, […] of fresh Opti-MEM (Gibco) was added to each well, and the cells were cultured at 37° C. and 5% CO2 for 1 h. […] Fluorescence at 480 nm/530 nm was measured on a microplate reader (Sumitomo Dainippon Pharma) to find the relative ROS production (designated as “Control” in FIG. 10). […]

## COc1cc(-c2[o+]c3cc(O)cc(OC4OC(CO)C(O)C(O)C4O)c3cc2OC2OC(CO)C(O)C(O)C2O)cc(OC)c1O (stereo not shown) [M3,5G, Malvidin-3,5-diglucoside chloride]
[1]; 12.56 μM, amyloid β protein-treated cells, compared to “Aβ”
  expression of MAPK14: significantly high
[1]; Sample 1 alone, no amyloid β, compared to “Control”
  expression of MAPK14: significantly increased
[2]; compared to “Aβ”
  ROS production: significant reductions
[2]; compared to “Control”
  ROS production: no significance
